Target: T1, Brd4 bromodomain 1 (Homo sapiens, UniProt O60885)
T1 construct: made in house; host or cells: E. coli BL21(DE3)
Test: Inhibition of binding of tetra-acetylated histone H4 to Brd4 bromodomain 1 (TR-FRET)
Settings: His-tagged Brd4 bromodomain 1 200 nM, tetra-acetylated histone H4 peptide 25-50 nM, 2 hours room temperature
Method: Proteins were cloned and overexpressed with a N-terminal 6×His tag, then purified by nickel affinity followed by size exclusion chromatography. Briefly, E. coli BL21(DE3) cells were transformed with a recombinant expression vector encoding N-terminally Nickel affinity tagged bromodomains from Brd2, Brd3, Brd4. Cell cultures were incubated at 37° C. with shaking to the appropriate density and induced overnight with IPTG. The supernatant of lysed cells was loaded onto Ni-IDA column for purification. Eluted protein was pooled, concentrated and further purified by size exclusion chromatography. Fractions representing monomeric protein were pooled, concentrated, aliquoted, and frozen at −80° C. for use in subsequent experiments.
For inhibition assays, serially diluted test compound was added to these reactions in a 0.2% final concentration of DMSO. Final buffer concentrations were 30 mM HEPES pH 7.4, 30 mM NaCl, 0.3 mM CHAPS, 20 mM phosphate pH 7.0, 320 mM KF, 0.08% BSA). […] The binding inhibitory activity was shown by a decrease in 665 nm fluorescence relative to 620 nm. IC50 values were determined from a dose response curve.

Compound | FRET activity (<50 uM)
COc1cc(OC)c2c(=O)[nH]c(-c3ccc(OC4CCN(C(=O)N(C)C)CC4)cc3)nc2c1 [Example 63, 4-(4-(5,7-Dimethoxy-4-oxo-3,4-dihydroquinazolin-2-yl)phenoxy)-N,N-dimethylpiperidine-1-carboxamide] | Active
COc1cc(OC)c2c(=O)[nH]c(-c3ccc(N4CCC(NC(=O)c5ccccc5)CC4)cc3)nc2c1 [Example 20, N-(1-(4-(5,7-Dimethoxy-4-oxo-3,4-dihydroquinazolin-2-yl)phenyl)piperidin-4-yl)benzamide] | Inactive
COCCOc1cc(OC)cc2nc(-c3cc(C)nc(C)c3)[nH]c(=O)c12 [Example 105, 2-(2,6-Dimethylpyridin-4-yl)-7-methoxy-5-(2-methoxyethoxy)quinazolin-4(3H)-one] | Active
CCCCCC(=O)N1CCN(c2ccc(-c3nc4cc(OC)cc(OC)c4c(=O)[nH]3)cc2)CC1 [Example 16, 2-(4-(4-Hexanoylpiperazin-1-yl)phenyl)-5,7-dimethoxyquinazolin-4(3H)-one] | Inactive
COc1cc(OC)c2c(=O)[nH]c(-c3ccc4[nH]c(CN5CCCC5)cc4c3)nc2c1 [Example 55, 5,7-Dimethoxy-2-(2-(pyrrolidin-1-ylmethyl)-1H-indol-5-yl)quinazolin-4(3H)-one] | Active
COc1cc(OC)c2c(=O)[nH]c(-c3ccc(Nc4cccnc4)cc3)nc2c1 [Example 62, 5,7-Dimethoxy-2-(4-(pyridin-3-ylamino)phenyl)quinazolin-4(3H)-one] | Active
COc1cc(OC)c2c(=O)[nH]c(-c3ccc(CN4CCC(NC(C)C)CC4)cc3)nc2c1 [Example 95, 2-(4-((4-(Isopropylamino)piperidin-1-yl)methyl)phenyl)-5,7-dimethoxyquinazolin-4(3H)-one] | Active
COc1cc(OC)c2c(=O)[nH]c(-c3ccc(N4CCN(Cc5ccccc5)CC4)cc3)nc2c1 [Example 30, 2-(4-(4-Benzylpiperazin-1-yl)phenyl)-5,7-dimethoxyquinazolin-4(3H)-one] | Inactive
COc1cc(OC)c2c(=O)[nH]c(-c3ccc(N4CCN(C(=O)CC(F)(F)F)CC4)cc3)nc2c1 [Example 26, 5,7-Dimethoxy-2-(4-(4-(3,3,3-trifluoropropanoyl)piperazin-1-yl)phenyl)quinazolin-4(3H)-one] | Active
COc1cc(OC)c2c(=O)[nH]c(-c3ccc(N4CCC(NCC5CC5)C4)cc3)nc2c1 (stereo not shown) [Example 4, 2-(4-(3-(cyclopropylmethylamino)pyrrolidin-1-yl)phenyl)-5,7-dimethoxyquinazolin-4(3H)-one] | Active
COc1cc(OC)c2c(=O)[nH]c(-c3ccc(N4CCC(NC(C)=O)CC4)cc3)nc2c1 [Example 13, N-(1-(4-(5,7-Dimethoxy-4-oxo-3,4-dihydroquinazolin-2-yl)phenyl)piperidin-4-yl)acetamide] | Active
COc1cc(OC)c2c(=O)[nH]c(-c3ccc(N4CCN(C(=O)c5cc(Cl)sc5Cl)CC4)cc3)nc2c1 [Example 27, 2-(4-(4-(2,5-Dichlorothiophene-3-carbonyl)piperazin-1-yl)phenyl)-5,7-dimethoxyquinazolin-4(3H)-one] | Active
COc1cc(OC)c2c(=O)[nH]c(-c3ccc4[nH]c(CO)cc4c3)nc2c1 [Example 53, 2-(2-(Hydroxymethyl)-1H-indol-5-yl)-5,7-dimethoxyquinazolin-4(3H)-one] | Active
COc1cc(OC)c2c(=O)[nH]c(-c3ccc(C4CCN(C(C)=O)CC4)cc3)nc2c1 [Example 3, 2-(4-(1-acetylpiperidin-4-yl)phenyl)-5,7-dimethoxyquinazolin-4(3H)-one] | Active

Other lines, results leading:

FRET activity (<50 uM) | Compound
Inactive | Cc1cc(-c2nc3cc(F)cc(F)c3c(=O)[nH]2)cc(C)c1OCCN1CCCC1 [Example 85, 2-(3,5-Dimethyl-4-(2-(pyrrolidin-1-yl)ethoxy)phenyl)-5,7-difluoroquinazolin-4(3H)-one]
Active | COc1cc(OC)c2c(=O)[nH]c(-c3ccc(N4CCC(N(Cc5ccccc5)C(C)=O)CC4)nc3)nc2c1 [Example 49, N-Benzyl-N-(1-(5-(5,7-dimethoxy-4-oxo-3,4-dihydroquinazolin-2-yl)pyridin-2-yl)piperidin-4-yl)acetamide]
Active | COc1cc(OC)c2c(=O)[nH]c(-c3ccc(N4CCC(NC(=O)N(C)C)CC4)cc3)nc2c1 [Example 15, 3-(1-(4-(5,7-Dimethoxy-4-oxo-3,4-dihydroquinazolin-2-yl)phenyl)piperidin-4-yl)-1,1-dimethylurea]
Active | CCCCN1CCN(c2ccc(-c3nc4cc(OC)cc(OC)c4c(=O)[nH]3)cc2)CC1 [Example 2, 2-(4-(4-butylpiperazin-1-yl)phenyl)-5,7-dimethoxyquinazolin-4(3H)-one]
Inactive | COc1cc(OC)c2c(=O)[nH]c(-c3ccc(N4CCN(Cc5ccc(F)cc5)CC4)cc3)nc2c1 [Example 29, 2-(4-(4-(4-Fluorobenzyl)piperazin-1-yl)phenyl)-5,7-dimethoxyquinazolin-4(3H)-one]
Active | COc1cc(OC)c2c(=O)[nH]c(-c3ccc4[nH]c(CN(C)C)cc4c3)nc2c1 [Example 58, 2-(2-((Dimethylamino)methyl)-1H-indol-5-yl)-5,7-dimethoxyquinazolin-4(3H)-one]
Active | COc1cc(OC)c2c(=O)[nH]c(-c3ccc(N4CCC(N(C)C(C)=O)C4)cc3)nc2c1 (stereo not shown) [Example 46, N-(1-(4-(5,7-dimethoxy-4-oxo-3,4-dihydroquinazolin-2-yl)phenyl)pyrrolidin-3-yl)-N-methylacetamide]
Active | COc1cc(OC)c2c(=O)[nH]c(-c3ccc(N4CCN(C(=O)c5ccccn5)CC4)cc3)nc2c1 [Example 21, 5,7-Dimethoxy-2-(4-(4-picolinoylpiperazin-1-yl)phenyl)quinazolin-4(3H)-one]
Active | COc1cc(OC)c2c(=O)[nH]c(-c3ccc(N4C[C@@H](C)N[C@@H](C)C4)cc3)nc2c1 [Example 37, 2-(4-((3R,5S)-3,5-Dimethylpiperazin-1-yl)phenyl)-5,7-dimethoxyquinazolin-4(3H)-one]
Active | COc1cc(OC)c2c(=O)[nH]c(-c3cc(C)c(OCCN4C(=O)CCC4=O)c(C)c3)nc2c1 [Example 97, 1-(2-(4-(5,7-Dimethoxy-4-oxo-3,4-dihydroquinazolin-2-yl)-2,6-dimethylphenoxy)ethyl)pyrrolidine-2,5-dione]
Active | COc1cc(OC)c2c(=O)[nH]c(-c3cc(C)c(OC[C@@H]4CCC(=O)N4)c(C)c3)nc2c1 [Example 92, (S)-2-(3,5-Dimethyl-4-((5-oxopyrrolidin-2-yl)methoxy)phenyl)-5,7-dimethoxyquinazolin-4(3H)-one]
Inactive | COc1cc(OC)c2c(=O)[nH]c(-c3ccc(N4CCC(N(C(C)=O)C(C)C)CC4)cc3)nc2c1 [Example 40, N-(1-(4-(5,7-dimethoxy-4-oxo-3,4-dihydroquinazolin-2-yl)phenyl)piperidin-4-yl)-N-isopropylacetamide]
Inactive | Cc1cc(-c2nc3cc(F)cc(N4CCCC4)c3c(=O)[nH]2)cc(C)c1OCCN1CCCC1 [Example 82, 2-(3,5-Dimethyl-4-(2-(pyrrolidin-1-yl)ethoxy)phenyl)-7-fluoro-5-(pyrrolidin-1-yl)quinazolin-4(3H)-one]
Active | COc1cc(OC)c2c(=O)[nH]c(-c3cc(C)c(OCCC4CN(C(C)=O)C4)c(C)c3)nc2c1 [Example 5, 2-(4-(2-(1-acetylazetidin-3-yl)ethoxy)-3,5-dimethylphenyl)-5,7-dimethoxyquinazolin-4(3H)-one]
Active | COc1cc(OCCOC(C)C)c2c(=O)[nH]c(-c3cc(C)nc(C)c3)nc2c1 [Example 6, 2-(2,6-dimethylpyridin-4-yl)-5-(2-isopropoxyethoxy)-7-methoxyquinazolin-4(3H)-one]
Active | COc1cc(OC)c2c(=O)[nH]c(-c3ccc(N4CCN(C(=O)c5cccnc5)CC4)cc3)nc2c1 [Example 22, 5,7-Dimethoxy-2-(4-(4-nicotinoylpiperazin-1-yl)phenyl)quinazolin-4(3H)-one]
Active | COc1cc(OC)c2c(=O)[nH]c(-c3ccc(N4CCN(C=O)CC4)cc3)nc2c1 [Example 51, 4-(4-(5,7-Dimethoxy-4-oxo-3,4-dihydroquinazolin-2-yl)phenyl)piperazine-1-carbaldehyde]
Active | COc1cc(OC)c2c(=O)[nH]c(-c3ccc4[nH]c(CCO)cc4c3)nc2c1 [Example 54, 2-(2-(2-Hydroxyethyl)-1H-indol-5-yl)-5,7-dimethoxyquinazolin-4(3H)-one]
Active | COc1cc(OC)c2c(=O)[nH]c(-c3ccc(N4CCN(C(C)=O)C(C)C4)cc3)nc2c1 (stereo not shown) [Example 38, 2-(4-(4-Acetyl-3-methylpiperazin-1-yl)phenyl)-5,7-dimethoxyquinazolin-4(3H)-one]
Active | COc1cc(OC)c2c(=O)[nH]c(-c3cc(C)c(OCCCN4CCCC4)c(C)c3)nc2c1 [Example 75, 2-(3,5-Dimethyl-4-(3-(pyrrolidin-1-yl)propoxy)phenyl)-5,7-dimethoxyquinazolin-4(3H)-one]
